In brackets after ≈: the same amount, converted by molar mass. Several values for one entry are separate records, joined by “and”; a condition that tells them apart may be missing. Equal values may be shown once.
Key:
Assay in all cases: ≥ marks a high value that may be exact or a test limit, other limits are often not marked, values filed in µg/mL are converted to µM
[1] = test system: Escherichia coli ATCC 25922
Escherichia coli = test system: Escherichia coli
[2] = test system: Staphylococcus aureus ATCC 25923
[3] = test system: Pseudomonas aeruginosa ATCC 27853
Staphylococcus aureus = test system: Staphylococcus aureus

Row | Compound | MIC [1] | MIC [2] | further results
1 | CC(C)C[C@H](NC(=O)[C@H](Cc1ccccc1)NC(=O)[C@@H]1CCCN1C(=O)[C@H](Cc1c[nH]c2ccccc12)NC(=O)[C@H](Cc1ccc(O)cc1)NC(=O)[C@H](Cc1ccc(O)cc1)NC(=O)[C@@H]1CCCN1C(=O)[C@H](Cc1ccccc1)NC(=O)[C@H](CCCN=C(N)N)NC(=O)[C@H](CCCN=C(N)N)NC(=O)[C@@H](N)C(C)C)C(=O)N[C@@H](CCCN=C(N)N)C(=O)N[C@@H](CCCN=C(N)N)C(N)=O [VRRFPYYWPFLRR] | 32 µM (≈ 59.4 µg/mL) | – | –
2 | CC(C)[C@H](N)C(=O)N[C@H]1CSSC[C@@H](C(=O)N[C@H](C(=O)NCC(=O)N[C@@H](CCCN=C(N)N)C(=O)O)C(C)C)NC(=O)[C@H](C(C)C)NC(=O)[C@@H]2CSSC[C@H](NC(=O)[C@H](Cc3ccc(O)cc3)NC1=O)C(=O)N[C@@H](CCCN=C(N)N)C(=O)N[C@@H](CCCN=C(N)N)C(=O)N[C@@H](CCCN=C(N)N)C(=O)N[C@@H](Cc1ccccc1)C(=O)N2 [VCYCRRRFCVCVGR] | – | – | MIC (Escherichia coli): 0.349 µM (≈ 0.599 µg/mL)
3 | NC(=O)[C@H](Cc1ccc(O)cc1)NC(=O)[C@H](CCCN=C(N)N)NC(=O)[C@H](Cc1c[nH]c2ccccc12)NC(=O)[C@H](CCCN=C(N)N)NC(=O)[C@@H](N)Cc1c[nH]c2ccccc12 [WRWRY] | 115 µM (≈ 99.9 µg/mL) | 57.7 µM (≈ 49.9 µg/mL) | –
4 | CC(C)[C@H](NC(=O)[C@H](C)NC(=O)[C@@H](N)CCC(N)=O)C(=O)N[C@@H](CCC(=O)O)C(=O)N[C@@H](C)C(=O)N[C@@H](CCC(N)=O)C(=O)N[C@@H](CCCCN)C(=O)O [QAVEAQK] | 1620 µM (≈ 1250 µg/mL) | 809 µM (≈ 625 µg/mL) | –
5 | CC[C@H](C)[C@H](NC(=O)[C@H](CC(C)C)NC(=O)[C@H](C)NC(=O)[C@H](Cc1ccccc1)NC(=O)[C@H](Cc1ccccc1)NC(=O)CN)C(=O)N[C@@H](C)C(=O)N[C@@H](CCCCN)C(=O)N[C@H](C(=O)N[C@H](C(=O)N[C@@H](CO)C(=O)N[C@@H](CO)C(=O)N1CCC[C@H]1C(=O)N[C@@H](CC(C)C)C(=O)N[C@@H](Cc1ccccc1)C(=O)N[C@@H](CCCCN)C(=O)N[C@H](C(=O)N[C@@H](CC(C)C)C(N)=O)[C@@H](C)O)[C@@H](C)CC)[C@@H](C)CC [GFFALIAKIISSPLFKTL] | – | – | MIC (Escherichia coli): 20.3 µM (≈ 40 µg/mL)
6 | CC(C)[C@H](NC(=O)[C@H](CC(=O)O)NC(=O)[C@H](CO)NC(=O)[C@H](CCCCN)NC(=O)CNC(=O)[C@H](CO)NC(=O)[C@H](CO)NC(=O)[C@H](Cc1cnc[nH]1)NC(=O)[C@H](CCC(N)=O)NC(=O)[C@@H](N)CCC(=O)O)C(N)=O [EQHSSGKSDV] | > 100 µM | > 100 µM | MIC [3]: > 100 µM
7 | CC[C@H](C)[C@H](NC(=O)[C@H](CCSC)NC(=O)[C@H](CCCN=C(N)N)NC(=O)CNC(=O)[C@H](C)NC(=O)[C@H](Cc1cnc[nH]1)NC(=O)[C@H](Cc1ccccc1)NC(=O)[C@H](CC(C)C)NC(=O)CNC(=O)[C@H](CCCCN)NC(=O)[C@@H](NC(=O)[C@@H](NC(=O)[C@H](Cc1cnc[nH]1)NC(=O)[C@H](Cc1ccccc1)NC(=O)[C@H](Cc1ccccc1)NC(=O)[C@@H](N)Cc1ccccc1)[C@@H](C)CC)[C@@H](C)CC)C(=O)N[C@@H](Cc1cnc[nH]1)C(=O)NCC(=O)N[C@@H](CC(C)C)C(=O)N[C@H](C(=O)O)C(C)C [FFFHIIKGLFHAGRMIHGLV] | – | – | MIC [3]: 32 µM (≈ 74.9 µg/mL)
8 | CC[C@H](C)[C@H](NC(=O)[C@H](CCCCN)NC(=O)[C@@H]1CCCN1C(=O)[C@H](CC(C)C)NC(=O)[C@H](Cc1ccccc1)NC(=O)[C@H](CC(N)=O)NC(=O)[C@H](C)NC(=O)[C@H](C)NC(=O)[C@@H]1CSSC[C@H](NC(=O)[C@H](CC(C)C)NC(=O)CNC(=O)[C@H](C)NC(=O)[C@H](CC(C)C)NC(=O)[C@H](CC(C)C)NC(=O)[C@@H]2CCCN2C(=O)[C@H](CC(C)C)NC(=O)[C@@H](N)Cc2ccccc2)C(=O)N[C@@H](CCCCN)C(=O)N[C@@H]([C@@H](C)CC)C(=O)N[C@@H]([C@@H](C)O)C(=O)N[C@@H](CCCN=C(N)N)C(=O)N[C@@H](CCCCN)C(=O)N1)C(=O)N[C@@H](Cc1ccccc1)C(=O)O [FLPLLAGLCKITRKCAANFLPKIF] | – | – | MIC (Escherichia coli): 7 µM (≈ 18.7 µg/mL); MIC (Staphylococcus aureus): 1.5 µM (≈ 4.01 µg/mL)
9 | CC[C@H](C)[C@H](NC(=O)CNC(=O)[C@H](CO)NC(=O)[C@H](CCCN=C(N)N)NC(=O)[C@@H](NC(=O)CNC(=O)[C@H](Cc1c[nH]c2ccccc12)NC(=O)[C@@H](N)CC(C)C)[C@@H](C)O)C(=O)N[C@@H](CCC(N)=O)C(=O)N1CCC[C@H]1C(N)=O [LWGTRSGIQP] | > 100 µM | > 100 µM | MIC [3]: > 100 µM
10 | CC(C)C[C@H](NC(=O)[C@H](CC(C)C)NC(=O)[C@@H](NC(=O)[C@H](CCCCN)NC(=O)[C@H](C)NC(=O)[C@H](CCCN=C(N)N)NC(=O)[C@H](CCCCN)NC(=O)[C@H](CC(C)C)NC(=O)[C@H](CC(C)C)NC(=O)CN)[C@@H](C)O)C(N)=O [GLLKRAKTLL] | > 36.9 µM | > 36.9 µM | –
11 | CC[C@H](C)[C@H](NC(=O)[C@H](Cc1cnc[nH]1)NC(=O)[C@H](CCCN=C(N)N)NC(=O)[C@H](Cc1c[nH]c2ccccc12)NC(=O)[C@@H](NC(=O)[C@H](CCCN=C(N)N)NC(=O)[C@H](CCCCN)NC(=O)[C@H](C)NC(=O)CNC(=O)[C@H](CCCN=C(N)N)NC(=O)[C@H](CCSC)NC(=O)[C@H](C)NC(=O)[C@@H](N)CC(N)=O)C(C)C)C(N)=O [NAMRGAKRVWRHI] | 44.3 µM and 62.7 µM | – | –
12 | CC[C@H](C)[C@H](NC(=O)[C@H](Cc1ccccc1)NC(=O)[C@H](CCCCN)NC(=O)[C@H](CC(C)C)NC(=O)[C@H](CC(C)C)NC(=O)[C@@H](N)CCCCN)C(=O)N[C@@H](CCCCN)C(=O)N[C@H](C(=O)N[C@@H](CC(C)C)C(=O)N[C@@H](CC(C)C)C(N)=O)[C@@H](C)O [KLLKFIKTLL] | 2.47 µM (≈ 3 µg/mL) | 5.75 µM (≈ 6.99 µg/mL) | –
13 | CC[C@H](C)[C@H](NC(=O)[C@H](CCCN=C(N)N)NC(=O)[C@H](CO)NC(=O)[C@H](CC(C)C)NC(=O)[C@H](CC(C)C)NC(=O)CN)C(=O)N[C@@H](CCCCN)C(=O)N[C@H](C(=O)N[C@@H](CC(C)C)C(=O)N[C@@H](CC(C)C)C(N)=O)[C@@H](C)O [GLLSRIKTLL] | 100 µM (≈ 111 µg/mL) | – | –
14 | NC(=O)[C@H](Cc1c[nH]c2ccccc12)NC(=O)[C@H](CCCN=C(N)N)NC(=O)[C@H](CCCN=C(N)N)NC(=O)[C@@H](N)Cc1c[nH]c2ccccc12 [WRRW] | > 285 µM | 285 µM (≈ 200 µg/mL) | –
15 | CC[C@H](C)[C@H](NC(=O)[C@H](CO)NC(=O)[C@H](C)NC(=O)[C@H](CC(C)C)NC(=O)CNC(=O)[C@H](C)NC(=O)[C@H](CCCCN)NC(=O)[C@H](C)NC(=O)[C@H](Cc1ccccc1)NC(=O)[C@H](CCCCN)NC(=O)[C@H](CCCCN)NC(=O)[C@H](CC(C)C)NC(=O)CNC(=O)[C@H](CCC(=O)O)NC(=O)[C@H](C)NC(=O)[C@H](C)NC(=O)[C@@H](NC(=O)[C@@H](NC(=O)[C@H](Cc1c[nH]c2ccccc12)NC(=O)[C@H](Cc1ccccc1)NC(=O)CN)[C@@H](C)O)[C@@H](C)O)C(=O)N[C@@H](CC(C)C)C(=O)N[C@@H](CC(N)=O)C(=O)N1CCC[C@H]1C(=O)N[C@@H](CCCCN)C(=O)O [GFWTTAAEGLKKFAKAGLASILNPK] | – | – | MIC (Escherichia coli): 80 µM (≈ 210 µg/mL); MIC (Staphylococcus aureus): > 80 µM
16 | CC[C@H](C)[C@H](NC(=O)CN)C(=O)N[C@@H](CC(C)C)C(=O)N[C@@H](CO)C(=O)N[C@@H](CC(N)=O)C(=O)N[C@H](C(=O)N[C@@H](CC(C)C)C(=O)NCC(=O)N[C@@H](CCSC)C(=O)NCC(=O)N[C@@H](CCCCN)C(=O)N[C@@H](CCCCN)C(=O)N[C@H](C(=O)N[C@H](C(=O)N[C@H]1CSSC[C@@H](C(=O)O)NC(=O)[C@H](CC(C)C)NC(=O)CNC(=O)[C@H](CO)NC(=O)[C@H](CC(C)C)NC(=O)CNC1=O)C(C)C)[C@@H](C)CC)C(C)C [GILSNVLGMGKKIVCGLSGLC] | – | – | MIC (Escherichia coli): 70 µM (≈ 144 µg/mL); MIC (Staphylococcus aureus): > 100 µM

More lines, main results first:

Row | MIC [1] | MIC [2] | Compound | further results
17 | 2 µM (≈ 5.44 µg/mL) | – | CC[C@H](C)[C@H](N)C(=O)N[C@H](C(=O)N[C@@H](CCCCN)C(=O)N[C@@H](CCCCN)C(=O)N[C@@H](Cc1ccccc1)C(=O)N[C@@H](CC(C)C)C(=O)N[C@@H](Cc1cnc[nH]1)C(=O)N[C@@H](CO)C(=O)N[C@H](C(=O)N[C@@H](Cc1c[nH]c2ccccc12)C(=O)N[C@@H](CCCCN)C(=O)N[C@@H](Cc1ccccc1)C(=O)NCC(=O)N[C@@H](CCCCN)C(=O)N[C@@H](C)C(=O)N[C@@H](Cc1ccccc1)C(=O)N[C@H](C(=O)NCC(=O)N[C@@H](CCC(=O)O)C(=O)N[C@H](C(=O)N[C@@H](CCSC)C(=O)N[C@@H](CC(N)=O)C(=O)N[C@H](C(=O)O)[C@@H](C)CC)[C@@H](C)CC)C(C)C)[C@@H](C)CC)[C@@H](C)CC [IIKKFLHSIWKFGKAFVGEIMNI] | –
18 | 4 µM (≈ 9.34 µg/mL) | – | CC[C@H](C)[C@H](NC(=O)CN)C(=O)N[C@@H](CCCN=C(N)N)C(=O)N[C@@H](CC(=O)O)C(=O)N[C@H](C(=O)N[C@@H](CC(C)C)C(=O)N[C@@H](CCCCN)C(=O)NCC(=O)N[C@@H](C)C(=O)N[C@@H](C)C(=O)N[C@@H](CCCCN)C(=O)N[C@@H](C)C(=O)N[C@@H](Cc1ccccc1)C(=O)N[C@H](C(=O)N[C@@H](CCCCN)C(=O)N[C@H](C(=O)N[C@H](C(=O)N[C@@H](C)C(=O)NCC(=O)N[C@@H](Cc1cnc[nH]1)C(=O)N[C@H](C(=O)N[C@@H](C)C(=O)N[C@@H](CC(N)=O)C(N)=O)[C@@H](C)CC)C(C)C)[C@@H](C)O)C(C)C)C(C)C [GIRDVLKGAAKAFVKTVAGHIAN] | –
19 | > 125 µM | – | CC[C@H](C)[C@H](NC(=O)[C@H](CCCCN)NC(=O)[C@H](CCCCN)NC(=O)[C@@H](NC(=O)[C@@H](NC(=O)[C@H](CC(=O)O)NC(=O)[C@H](Cc1ccccc1)NC(=O)[C@H](CC(C)C)NC(=O)CN)[C@@H](C)CC)[C@@H](C)CC)C(=O)N[C@@H](Cc1c[nH]c2ccccc12)C(=O)N[C@@H](CCC(=O)O)C(=O)N[C@@H](CO)C(=O)N[C@@H](Cc1ccccc1)C(N)=O [GLFDIIKKIWESF] | MIC [3]: > 125 µM
20 | 8.87 µM (≈ 18.1 µg/mL) | – | CC[C@H](C)[C@H](NC(=O)[C@H](C)NC(=O)CNC(=O)[C@H](C)NC(=O)[C@H](CCCCN)NC(=O)[C@H](CO)NC(=O)[C@H](C)NC(=O)[C@H](CCSC)NC(=O)CN)C(=O)N[C@@H](C)C(=O)NCC(=O)N[C@@H](CCCCN)C(=O)N[C@H](C(=O)N[C@@H](C)C(=O)N[C@@H](CCCCN)C(=O)N[C@H](C(=O)N[C@@H](C)C(=O)N[C@@H](Cc1c[nH]c2ccccc12)C(=O)N[C@@H](CCCCN)C(=O)N[C@@H](C)C(=O)N[C@@H](CC(C)C)C(N)=O)C(C)C)[C@@H](C)CC [GMASKAGAIAGKIAKVAWKAL] | –

Reference: DBAASP
